{
  "source": "paper PMC4466647",
  "about": "“Inhibition of non-small cell lung cancer (NSCLC) growth by a novel small molecular inhibitor of EGFR” (Oncotarget, 2015)",
  "molecular_target": "EGFR (Homo sapiens, UniProt P00533)",
  "sequence (P00533 25-1210)": "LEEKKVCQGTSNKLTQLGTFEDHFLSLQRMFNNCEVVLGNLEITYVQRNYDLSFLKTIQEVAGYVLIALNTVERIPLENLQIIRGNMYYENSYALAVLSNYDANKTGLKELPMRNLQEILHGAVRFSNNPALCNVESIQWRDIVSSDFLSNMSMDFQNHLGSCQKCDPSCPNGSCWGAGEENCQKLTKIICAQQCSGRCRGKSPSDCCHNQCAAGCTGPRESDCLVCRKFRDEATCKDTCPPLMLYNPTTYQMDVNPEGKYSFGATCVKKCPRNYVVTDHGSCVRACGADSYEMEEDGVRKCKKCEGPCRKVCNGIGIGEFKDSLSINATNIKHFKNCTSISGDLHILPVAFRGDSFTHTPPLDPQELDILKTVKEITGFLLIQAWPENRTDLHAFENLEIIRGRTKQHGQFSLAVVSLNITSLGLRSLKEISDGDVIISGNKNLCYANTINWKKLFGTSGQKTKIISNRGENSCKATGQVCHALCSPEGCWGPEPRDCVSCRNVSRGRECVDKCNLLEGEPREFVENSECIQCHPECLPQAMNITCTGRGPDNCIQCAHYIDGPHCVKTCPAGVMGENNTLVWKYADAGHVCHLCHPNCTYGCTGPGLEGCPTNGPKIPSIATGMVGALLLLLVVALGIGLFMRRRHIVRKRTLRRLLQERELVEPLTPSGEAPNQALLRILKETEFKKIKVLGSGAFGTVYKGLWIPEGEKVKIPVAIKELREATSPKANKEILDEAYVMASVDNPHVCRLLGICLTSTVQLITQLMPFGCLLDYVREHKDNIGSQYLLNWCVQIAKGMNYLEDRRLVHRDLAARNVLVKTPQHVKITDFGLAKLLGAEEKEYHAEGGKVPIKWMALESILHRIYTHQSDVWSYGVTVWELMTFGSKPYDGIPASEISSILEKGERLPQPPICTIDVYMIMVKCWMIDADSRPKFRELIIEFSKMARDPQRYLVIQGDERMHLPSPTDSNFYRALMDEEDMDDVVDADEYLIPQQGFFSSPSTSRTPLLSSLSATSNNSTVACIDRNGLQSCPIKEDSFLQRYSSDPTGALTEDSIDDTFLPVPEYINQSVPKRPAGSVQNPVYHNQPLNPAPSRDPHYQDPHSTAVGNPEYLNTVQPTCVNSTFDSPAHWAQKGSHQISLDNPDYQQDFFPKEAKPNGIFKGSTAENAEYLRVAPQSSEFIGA",
  "experiment": "in vitro EGFR kinase assay (Promega Kinase-Glo luminescence, […] ATP)",
  "format": "biochemical",
  "data": [
    {"smiles": "O=C(Cc1ccccc1)N1CCc2c([nH]c3ccc(F)cc23)C1", "note": "[compound 308, WB-308]", "values": [
      {"measurement": "IC50", "value": "~43", "unit": "nM"}
    ]}
  ]
}
